{"source": "patent US8163777B2", "about": "“Benzimidazolyl-pyridine compounds for inflammation and immune-related uses” (Synta Pharmaceuticals Corp., priority 2006, dated 2012)", "system": "IL-2, IL-4, IL-5, IL-13, GM-CSF, INF-γ and TNF-α", "experiment": "Inhibition of multiple cytokines in primary human PBMCs (summary statement)", "format": "cell-based", "details": "PHA-stimulated PBMCs", "method": "Cytokine production was measured using commercially available human ELISA assay kits (from Cell Science, Inc.) following the manufacturers instructions."}
{"smiles": "CC(C)(C)OC(=O)Nc1ccc(C(=O)Nc2ccc(-n3c(C(F)(F)F)nc4ccccc43)cc2)c(F)c1F", "note": "[Compound 31, N-(4-{N-[4-(2-trifluoromethyl-benzoimidazol-1-yl)-phenyl]-carbamoyl}-2,3-difluoro-phenyl)-carbamic acid t-butyl ester]", "values": [{"measurement": "inhibition of IL-2, IL-4, IL-5, IL-13, GM-CSF, INF-γ and TNF-α (in words)", "result": "potent inhibitors"}]}
